Measured values taken from article PMC6100415, “Hepatic Metabolism of Sakuranetin and Its Modulating Effects on Cytochrome P450s and UDP-Glucuronosyltransferases” (Molecules : A Journal of Synthetic Chemistry and Natural …, 2018).

System: hCAR-mediated CYP2B6 promoter
Assay: CAR-mediated CYP2B6 promoter luciferase assay in HepG2 cells
Assay type: cell-based, human
Settings: pcDNA3-CAR-transfected HepG2 cells, 24 h; CITCO 500 nM
Experimental: HepG2 cells (American Tissue Culture Collection, Manassas, VA, USA) were maintained in Dulbecco’s modified Eagle’s essential medium (DMEM), containing 10% fetal bovine serum, 1% nonessential amino acids, 1% GlutaMAX®, and 1% antibiotics/antimycotics at 37 °C in a 5% CO2 atmosphere. The expression plasmid encoding the human constitutive androstane receptor (hCAR; pcDNA3-CAR) and the pGL3-CYP2B6 luciferase construct were kindly provided by Dr. Hongbing Wang (University of Maryland, College Park, MD, USA). The plasmid encoding the human pregnane X receptor (hPXR; pcDNA3-PXR) and the pGL3-CYP3A4 luciferase construct were obtained from Dr. Masahiko Negishi at the National Institutes of Health (Bethesda, MD, USA). Cells were seeded at a density of 1.5 × 10^5 cells/well into a 24-well plate. The next day, the cells were transfected with 0.25 μg of either pcDNA3-CAR or pcDNA3-PXR and 0.25 μg of a promoter luciferase plasmid (either pGL3-CYP2B6 or pGL3-CYP3A4) using Lipofectamine 2000 (Invitrogen, Carlsbad, CA, USA) according to the manufacturer’s instructions. […] The cells were harvested and luciferase activity was measured as described previously.

CYP2B6 luciferase activity increase: 1.5 fold
Structure (SMILES): Clc1ccc(-c2nc3sccn3c2C=NOCc2ccc(Cl)c(Cl)c2)cc1 [CITCO, reference compound]
